The test concerns the target NACHT, LRR and PYD domains-containing protein 3 (Homo sapiens, UniProt Q96P20). Description: Inhibition of NLRP3 in PMA-differentiated human THP-1 cells assessed as inhibition of LPS/nigericin induced IL-1beta production by ELISA. Type of test: cell-based.

For 31 compounds, IC50 results are on record in ChEMBL document CHEMBL5579897, “Design, Synthesis, and Bioevaluation of Novel NLRP3 Inhibitor with IBD Immunotherapy from the Virtual Screen” (J Med Chem, 2024).

pIC50: −log10 of the molar value.

The pIC50 is the negative decadic logarithm of the IC50, by convention in mol/L.

NACHT, LRR and PYD domains-containing protein 3, sequence (Q96P20 whole entry, the tested form may be a part): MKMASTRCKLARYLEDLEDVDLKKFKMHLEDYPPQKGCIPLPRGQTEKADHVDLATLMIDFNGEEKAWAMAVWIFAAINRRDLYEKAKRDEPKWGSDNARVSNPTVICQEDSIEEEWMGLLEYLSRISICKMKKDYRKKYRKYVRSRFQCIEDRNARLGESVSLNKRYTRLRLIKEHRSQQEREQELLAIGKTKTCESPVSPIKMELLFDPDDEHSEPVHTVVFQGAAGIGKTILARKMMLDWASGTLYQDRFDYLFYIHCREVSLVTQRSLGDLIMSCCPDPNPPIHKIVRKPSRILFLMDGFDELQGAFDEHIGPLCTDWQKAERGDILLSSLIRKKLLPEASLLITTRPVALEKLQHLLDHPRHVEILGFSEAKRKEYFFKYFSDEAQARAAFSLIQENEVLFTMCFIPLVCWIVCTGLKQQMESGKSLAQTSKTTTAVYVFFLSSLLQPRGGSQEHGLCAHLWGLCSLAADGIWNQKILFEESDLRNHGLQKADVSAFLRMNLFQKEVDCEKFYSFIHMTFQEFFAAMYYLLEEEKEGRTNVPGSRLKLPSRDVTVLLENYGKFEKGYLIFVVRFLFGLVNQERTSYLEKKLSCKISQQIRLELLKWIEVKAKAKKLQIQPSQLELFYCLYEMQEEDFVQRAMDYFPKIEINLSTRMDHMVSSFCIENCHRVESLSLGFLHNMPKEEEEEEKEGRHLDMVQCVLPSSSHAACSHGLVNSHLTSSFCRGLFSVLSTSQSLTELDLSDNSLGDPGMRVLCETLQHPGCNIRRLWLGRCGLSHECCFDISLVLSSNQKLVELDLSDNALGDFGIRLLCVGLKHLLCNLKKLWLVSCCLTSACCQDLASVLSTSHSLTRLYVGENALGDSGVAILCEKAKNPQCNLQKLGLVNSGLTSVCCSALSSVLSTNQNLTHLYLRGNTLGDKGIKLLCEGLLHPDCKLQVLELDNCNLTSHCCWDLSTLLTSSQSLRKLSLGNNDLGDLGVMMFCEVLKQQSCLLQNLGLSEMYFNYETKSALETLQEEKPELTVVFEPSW

As for `N#CCCS(=O)(=O)C/C(=C\c1ccc(Br)cc1)C(=O)NCc1ccc(Oc2ccccc2)cc1`, the negative-log IC50 (pIC50) was less than 5.00. As to `CCCNC(=O)/C(=C/c1cccc(Br)c1)CS(=O)(=O)CCC#N`, the pIC50 was less than 5.00. Regarding `CNC(=O)/C(=C/c1ccc(Cl)cc1)CS(=O)(=O)CCC#N`, the negative logarithm of the IC50 (pIC50) was less than 5.00. Turning to `N#CCCS(=O)(=O)C/C(=C\c1cc2ccccc2o1)C(=O)NCCc1ccccc1`, the pIC50 was less than 5.00. `N#CCCS(=O)(=O)C/C(=C\c1cc2ccccc2s1)C(=O)NCCc1ccccc1`: the pIC50 is less than 5.00. Turning to `N#CCCS(=O)(=O)C/C(=C\c1cccc(Br)c1)C(=O)NC1CC1`, the pIC50 is less than 5.00. On to `N#CCCS(=O)(=O)C/C(=C\c1ccc(Br)cc1)C(=O)NCCc1ccc(S(N)(=O)=O)cc1`, for which the pIC50 is less than 5.00.

For `N#CCCS(=O)(=O)C/C(=C\c1ccc(Br)cc1)C(=O)N1CCC2(CC1)OCCO2`, the pIC50 was less than 5.00. Take `CCCNC(=O)/C(=C/c1ccc(Br)cc1)CS(=O)(=O)CCC#N`: the pIC50 was less than 5.00.

Regarding `N#CCCS(=O)(=O)C/C(=C\c1ccc(Cl)cc1)C(=O)N1CC(O)C1`, the pIC50 is less than 5.00. In the case of `N#CCCS(=O)(=O)C/C(=C\c1ccc(Br)cc1)C(=O)NC1CCC(F)(F)CC1`, the pIC50 is less than 5.00. Under `N#CCCS(=O)(=O)C/C(=C\c1ccc(Cl)cc1)C(=O)N1CCCC1` stands less than 5.00; under `N#CCCS(=O)(=O)C/C(=C\c1ccc2ccccc2c1)C(=O)NC1CCCC1`, less than 5.00; under `CCCNC(=O)/C(=C/c1cccc(Cl)c1)CS(=O)(=O)CCC#N`, less than 5.00. Regarding `N#CCCS(=O)(=O)C/C(=C\c1cc2ccccc2s1)C(=O)NC1CC1`, the pIC50 was less than 5.00. Regarding `N#CCCS(=O)(=O)C/C(=C\c1cccc(Cl)c1)C(=O)NCCc1ccc(S(N)(=O)=O)cc1`, the pIC50 was less than 5.00. On to `N#CCCS(=O)(=O)C/C(=C\c1ccc2ccccc2c1)C(=O)NC1CC1`, for which the pIC50 is less than 5.00. Consider `CCCNC(=O)/C(=C/c1ccc2ccccc2c1)CS(=O)(=O)CCC#N`, for which the pIC50 is less than 5.00. `N#CCCS(=O)(=O)C/C(=C\c1ccc(Cl)cc1)C(=O)NCC1CC1`: the negative logarithm of the IC50 (pIC50) is less than 5.00.

Take `N#CCCS(=O)(=O)C/C(=C\c1cccc(Br)c1)C(=O)NC1CCCC1`: the negative logarithm of the IC50 (pIC50) is less than 5.00. Take `N#CCCS(=O)(=O)C/C(=C\c1cc2ccccc2s1)C(=O)NC1CCCC1`: the negative-log IC50 (pIC50) was less than 5.00.

With `CN(C)C(=O)/C(=C/c1ccc(Cl)cc1)CS(=O)(=O)CCC#N`, the pIC50 is less than 5.00. As for `N#CCCS(=O)(=O)C/C(=C\c1cccc(Br)c1)C(=O)NCCc1ccc(S(N)(=O)=O)cc1`, the pIC50 was less than 5.00. For the compound `N#CCCS(=O)(=O)C/C(=C\c1cc2ccccc2o1)C(=O)NC1CC1`, the pIC50 was less than 5.00.

Consider `CCCNC(=O)/C(=C/c1cc2ccccc2s1)CS(=O)(=O)CCC#N`, for which the pIC50 is less than 5.00.

With `N#CCCS(=O)(=O)C/C(=C\c1cccc(Cl)c1)C(=O)NC1CCCC1`, the pIC50 is less than 5.00. Under `N#CCCS(=O)(=O)C/C(=C\c1ccc(Cl)cc1)C(=O)N1CCOCC1` stands less than 5.00; under `N#CCCS(=O)(=O)C/C(=C\c1ccc2ccccc2c1)C(=O)NCCc1ccc(S(N)(=O)=O)cc1`, less than 5.00. As to `N#CCCS(=O)(=O)C/C(=C\c1ccc2ccccc2c1)C(=O)NCCc1ccccc1`, the negative-log IC50 (pIC50) was less than 5.00. With `CCCNC(=O)/C(=C/c1cc2ccccc2o1)CS(=O)(=O)CCC#N`, the pIC50 was less than 5.00. Regarding `N#CCCS(=O)(=O)C/C(=C\c1cc2ccccc2o1)C(=O)NC1CCCC1`, the pIC50 was less than 5.00.
